Read-outs that look alike come from different tables or passages of the source.
Assays:
[1] = system: Cellules primaires de reins de singe; experiment: cell culture cytotoxicity, normal cells; type: cell-based; details: 200 µg/ml; en culture de 7 jours dès l'ensemencement
Protocol: Des cultures de cellules saines (cellules primaires de reins de singe, cellules de lignée "Vero" et "SIRC") et des cultures de cellules cancéreuses (cellules K.B., cellules Hela, cellules Hep II et cellules L)ont reçu une dose de 200 Mg, soit de serpentine, soit d'alstonine, soit de sempervirine, par ml de culture.
(§1) L'effet cytotoxique spécifique, vis-à-vis des cellules tumorales utilisées, ne s'est jamais démenti au cours des très nombreuses expériences effectuées. Par contre, pour effectuer les cellules saines il a fallu des quantités d'alcaloides au moins dix fois plus grandes (plus de 2 mg/ml). (Les cultures de cellules in-vitro sans mycoplàsmes ont été effectuées dans les conditions classiques et en l'absence d'antibiotique qui pourraient fausser les résultats).
(§2) Les cellules cancéreuses et saines utilisées ne contenaient pas de mycoplasmes et le milieu de culture ne contenait pas d'antibiotique, ces derniers pouvant sensibiliser les cellules et par conséquent fausser les résultats.

Cellules K.B. = experiment: cell culture cytotoxicity, cancer cells; type: cell-based; details: 200 µg/ml; en culture de 3 jours dès l'ensemencement
Protocol: as §1, §2

tumeur MS 301 = experiment: transplantable mammary cancer of the mouse; type: in vivo, souris de souche Rh0 III; details: 400 ^gg at the tumour implantation site, twice a day for 15 days from day 3; n=10; p : 0,01
Description: Action sur le cancer mammaire greffable de la souris • - Vingt souris de 18 à 20g, de souche Rh0 III ont été inoculées, par voie sous-cutanée, par 0,8 " d'un extrait de tumeur MS 301, broyé. Dix souris ont été gardées comme témoins; dix autres vaient, le troisième jour après l'inoculation, 400 ^gg d'alstonine au niveau de l'implantation tumorale, deux fois par jour, pendant quinze- jours. Au seizième jour, les souris étaient anesthésiées et sacrifiées, les tumeurs excisées et pesées. • - La même expérience fut effectuée avec la serpentine au lieu d'alstonine.

lymphome YC 8 [2] = experiment: lymphoma YC 8 of the mouse, alstonine and cyclophosphamide; type: in vivo, souris BALB C; details: for survie (surviving mice/total): i.p., alstonine 400 µg par jour, 8 days from day 3, mixture with 2 mg cyclophosphamide
Ascite d'Ehrlich [3] = experiment: Ehrlich ascites tumour in the mouse, serpentine, alstonine, cyclophosphamide; type: in vivo, souris blanches Swiss; details: for definitive arrest of the Ehrlich ascites tumour (in words): each substance alone, treatment from day 4 or 5 for 10 to 15 days; for survie (surviving mice/total): I.P., serpentine 400 µg par jour, cyclophosphamide 2 ma par jour; for évolution de la tumeur d'Ehrlich (figure, weight of mice against days of treatment): voie intrapéritonéale, doses as above, curves 2, 3, 4
Description: Activité vis-à-vis des tumeurs "Ascite d'Ehrlich" chez la souris - 5 x 10^3 cellules Ascite d'Ehrlich sont inoculées à des souris blanches Swiss de 20-24 g, par voie intrapéritonéale.
Divers traitements furent appliqués dès le quatrième ou le cinquième jour et pendant dix à quinze jours. […] Un net ralentissement du développement des tumeurs est observé, mais les tumeurs repartent après arrêt du traitement dans le cas du cyclophosphamide seul, le redémarrage peut être plus tardif qu'avec la serpentine ou l'alstonine. Par contre, l'association de serpentine (400 µg par jour) et de cyclophosphamide (2 ma par jour) par voie I.P. permet d'obtenir une survie définitive (survie définitive : survie normale pendant trois mois sans perte de poids) et le pourcentage des survivants varie de 80 à 100% (Tableau IV ci-après). Les souris ainsi guéries augmentent normalement de poids et après quatre à six mois celui-ci est de 24-26 g. Leur aspect est absolument normal et rien ne les distingue de souris saines. (Dans les expériences, seule la survie sans récidive est prise en considération).
La figurer, où sont portés en abscisses le nombre de jours de traitement et en ordonnées le poids (en gramme) des souris, montre l'évolution de la tumeur d'Ehrlich chez les souris traitées, soit par la serpentine seule (courbe 2), soit par le cyclophosphamide seul (courbe 3), soit par la serpentine + cyclophosphamide (courbe 4) par voie intra- péritonéale et aux doses indiquées ci-dessus. […] Aucun de ces deux traitements ne permet d'obtenir une survie.définitive. Par contre, le mélange de serpentine et de cyclophosphamide permet d'obtenir une survie définitive.

virus de la grippe = type: in vivo, souris SWISS; details: for activity against influenza compared with sempervirine: doses comparables; for survie (surviving mice/total): 200 µg i.p. twice a day, 8 days
Ascite d'Ehrlich [4] = experiment: Ehrlich ascites tumour in the mouse, serpentine, alstonine, cyclophosphamide; type: in vivo, souris blanches Swiss; details: voie sous-cutanée, doses as above
cellules saines = experiment: cell culture cytotoxicity, healthy cells as a group; type: cell-based; details: 200 Mg par ml de culture; au bout de huit jours d'observation; reins de singe, Vero, SIRC
Protocol: as §1, §2

cellules cancéreuses = experiment: cell culture cytotoxicity, cancer cells as a group; type: cell-based; details: 200 Mg par ml de culture; en 24 à 48 heures; K.B., Hela, Hep II, L
Protocol: as §1, §2

lymphome YC 8 [5] = experiment: lymphoma YC 8 of the mouse, sempervirine; type: in vivo, souris BALB c; details: for survie (surviving mice/total): 10 days from day 2
Description: 34 souris BALB c de 17-20 g sont inoculées par voie intra- péritonéale par […] ascitiques du lymphome YC 8 de la souris fraîchement prélevées et dix souris sont gardées comme témoins.
24 souris sont traitées le deuxième jour après inoculation par la sempervirine dissoute en milieu tamponné (pH 7,65) à raison de deux fois par jour par voie intrapéritonéale (300 µ g par jour) et pendant 10 jours consécutifs.
Les résultats sont présentés dans le tableau IX ci-après et illustrent la survie pendant trois mois des animaux traités. (Une survie de plusieurs jours n'est pas prise en considération).

Ascite d'Ehrlich [6] = experiment: Ehrlich ascites tumour in the mouse, sempervirine; type: in vivo, souris BALB c; details: for survie (surviving mice/total): i.p. 300 µg par jour in two doses, 10 days from day 2
Description: Les résultats sont présentés dans le tableau X ci-après et illustrent la survie des animaux pendant trois mois, une survie de plusieurs jours n'étant pas prise en considération.

virus de la vaccine = system: virus de la vaccine; set-up: species or system lapin; details: in vivo
cancers du sein = experiment: clinical trials in humans, breast cancer cases; type: in vivo, humains
Description: Toutefois, on a pu constater au cours des essais cliniques sur l'humain que les β-carbolines quaternaires avaient une demi-vie trop courte pour être administrée sous forme galénique mais que, de façon surprenante, on obtenait d'excellents résultats dans le traitement des cancers chez les humains en utilisant une nouvelle forme galénique constituée de microgranules à libération prolongée des p-carbolines quaternaires. Ces microgranules comprennent une âme neutre constituée d'un grain excipient inerte par exemple un ou plusieurs constituants tels que le sacchorose, l'amidon, le talc, la silice désséchante, le lactose et l'acide stéarique, le grain neutre étant muni d'une première couche comprenant la β-carboline quaternaire puis d'une seconde couche extérieure constituée par une enveloppe microporeuse comprenant au moins un polymère naturel et/ou synthétique appartenant à la classe constituée par la gomme laque, la qomme arabique, la gélatine, l'éthylcellulose, l'acétophtalate d2 cellulose, le triacétate de cellulose, le polyoxyéthylèneglycol, les méthacrylates, le copolymère styrène-acrylonitrile et la polyvinylpyrrolidone.
A titre d'exemple, on a reproduit ci-après trois cas significatifs relatifs à.des cancers du sein et pour lesquels on a utilisée la serpentine préparéeselon la nouvelle forme galénique objet de l'invention décrite ci-dessus.

COC(=O)C1=CO[C@@H](C)[C@@H]2Cn3ccc4c5ccccc5nc-4c3C[C@H]12 [alstonine]
destruction des cellules [1]: Pas de destruction pendant 8 jours
destruction des cellules (Cellules K.B.): Destruction totale en 24-48 heures
POIDS MOYEN (en grammes) DES TUMEURS, AU 16è JOUR (tumeur MS 301): 1,7 (compris entre 0,8 et 2,6) grammes
survie (in words) (lymphome YC 8 [2]; alstonine seule, same doses, voie sous-cutanée): ne survivent pas plus longtemps que les souris témoins
survie (surviving mice/total) (lymphome YC 8 [2]; day 0): 10/10
survie (surviving mice/total) (lymphome YC 8 [2]; day 22): 7/10
survie (surviving mice/total) (lymphome YC 8 [2]; day 60): 4/10
survie (surviving mice/total) (lymphome YC 8 [2]; day 90): 4/10
definitive arrest of the Ehrlich ascites tumour (in words) (Ascite d'Ehrlich [3]): ne peuvent définitivement arrêter la tumeur ascitique d'Ehrlich
activity against influenza compared with sempervirine (virus de la grippe): résultats tout à fait comparables
survie and tumour evolution (in words) (Ascite d'Ehrlich [4]): sans effet sur la survie définitive des souris

O=P1(N(CCCl)CCCl)NCCCO1 (centres unmarked) [cyclophosphamide]
outcome with cyclophosphamide alone (in words) (lymphome YC 8 [2]; cyclophosphamide seul): après 1-3 mois, l'amaigrissement est tel qu'elles meurent
amaigrissement of the treated mouse (Ascite d'Ehrlich [3]; cyclophosphamide seul, i.p.): amaigrissement très fort
survie (surviving mice/total) (Ascite d'Ehrlich [3]; day 0): 6/6
survie (surviving mice/total) (Ascite d'Ehrlich [3]; day 25): 6/6
survie (surviving mice/total) (Ascite d'Ehrlich [3]; day 35): 6/6
survie (surviving mice/total) (Ascite d'Ehrlich [3]; day 60): 2/6
survie (surviving mice/total) (Ascite d'Ehrlich [3]; day 120): 0/6
definitive arrest of the Ehrlich ascites tumour (in words) (Ascite d'Ehrlich [3]): ne peuvent définitivement arrêter la tumeur ascitique d'Ehrlich
évolution de la tumeur d'Ehrlich (figure, weight of mice against days of treatment) (Ascite d'Ehrlich [3]): net ralentissement du poids des tumeurs

c1ccc2c3ccn4cc5c(cc4c-3nc2c1)CCCC5 [sempervirine]
destruction des cellules [1]: Pas de destruction pendant 8 jours
destruction des cellules (Cellules K.B.): Destruction totale en 24-48 heures
destruction des cellules saines (cellules saines): aucune destruction des cellules saines
destruction des cellules cancéreuses (cellules cancéreuses): toutes les cellules cancéreuses étaient détruites
survie (surviving mice/total) (lymphome YC 8 [5]; day 0, i.p. 300 µg par jour in two doses): 24/24
survie (surviving mice/total) (lymphome YC 8 [5]; day 20, i.p. 300 µ g par jour in two doses): 24/24
survie (surviving mice/total) (lymphome YC 8 [5]; day 60, i.p. 300 µg par jour in two doses): 20/24
survie (surviving mice/total) (lymphome YC 8 [5]; day 90, i.p. 300 µg par jour in two doses): 20/24
state of the surviving mice (lymphome YC 8 [5]; i.p. treated survivors, kept more than three months): tout à fait normales
survie (in words) (lymphome YC 8 [5]; voie sous-cutanée): ne survivent pas très longtemps après les souris témoins
survie (surviving mice/total) (Ascite d'Ehrlich [6]; day 0): 20/20
survie (surviving mice/total) (Ascite d'Ehrlich [6]; day 21): 15/20
survie (surviving mice/total) (Ascite d'Ehrlich [6]; day 60): 10/20
survie (surviving mice/total) (Ascite d'Ehrlich [6]; day 90): 10/20
guérison définitive, proportion of mice (Ascite d'Ehrlich [6]; sempervirine seule, same results in souris blanches SWISS): ~50%
appearance of papules (virus de la vaccine): non apparition de papules ou apparition de papules dont la tailla est considérablement diminuée
lung lobes affected by the virus (congestion) (virus de la grippe; […], in controls half of the lobes affected): 0 ou 1 lobe par poumon atteint
survie (surviving mice/total) (virus de la grippe; day 0, Groupe B: treated from inoculation): 10/10
survie (surviving mice/total) (virus de la grippe; day 0, Groupe C: treated from 24 h after inoculation): 10/10
survie (surviving mice/total) (virus de la grippe; day 10, Groupe B: treated from inoculation): 10/10
survie (surviving mice/total) (virus de la grippe; day 10, Groupe C: treated from 24 h after inoculation): 10/10
survie (surviving mice/total) (virus de la grippe; day 16, Groupe B: treated from inoculation): 8/10
survie (surviving mice/total) (virus de la grippe; day 16, Groupe C: treated from 24 h after inoculation): 6/10

COC(=O)C1=CO[C@@H](C)[C@H]2Cn3ccc4c5ccccc5nc-4c3C[C@H]12 [serpentine]
destruction des cellules [1]: Pas de destruction pendant 8 jours
destruction des cellules (Cellules K.B.): Destruction totale en 24-48 heures
destruction des cellules saines (cellules saines): aucune destruction des cellules saines
destruction des cellules cancéreuses (cellules cancéreuses): toutes les cellules cancéreuses étaient détruites
POIDS MOYEN (en grammes) DES TUMEURS, AU 16è JOUR (tumeur MS 301): 1,6 (compris entre 0,9 et 2,5) grammes
survie (surviving mice/total) (Ascite d'Ehrlich [3]; day 0): 10/10
survie (surviving mice/total) (Ascite d'Ehrlich [3]; day 25): 10/10
survie (surviving mice/total) (Ascite d'Ehrlich [3]; day 35): 0/10
definitive arrest of the Ehrlich ascites tumour (in words) (Ascite d'Ehrlich [3]): ne peuvent définitivement arrêter la tumeur ascitique d'Ehrlich
évolution de la tumeur d'Ehrlich (figure, weight of mice against days of treatment) (Ascite d'Ehrlich [3]): net ralentissement du poids des tumeurs
activity against influenza compared with sempervirine (virus de la grippe): résultats tout à fait comparables
clinical outcome, case 1 (Madame M.) (cancers du sein; after one month, 100mg en microgranules par jour per os in two doses, after irradiation): régression des deux tumeurs
clinical outcome, case 3 (Madame L.) (cancers du sein; bone metastases, sustained-release microgranules, 6 months of treatment): La fracture du col du fémur se consolide ainsi que disparait la métastase calcanéenne
clinical outcome, case 1 (Madame M.) (cancers du sein; during 6 months of treatment, 100mg en microgranules par jour per os): la tumeur du sein diminue et disparait alors que le squirrhe lui-même régresse considérablement
clinical outcome, case 2 (Madame P.) (cancers du sein; three months, microgranules 100 mg par jour per os in two doses, after radiotherapy and local excision): la douleur qui persistait après l'intervention disparait progressivement et le sein prend un aspect normal et indolore
survie and tumour evolution (in words) (Ascite d'Ehrlich [4]): sans effet sur la survie définitive des souris

From patent EP0059817A1, “Serpentine, alstonine and sempervirine drugs for the specific inhibition of tumurous and cancerous cells” (priority 1981, dated 1982)
